Measured values: patent US11318157B2, “6-6 bicyclic aromatic ring substituted nucleoside analogues for use as PRMT5 inhibitors” (Janssen Pharmaceutica NV, priority 2015, dated 2022)
Read-outs that look alike come from different tables or passages of the source.

Key:
[1] = target: T1, PRMT5-MEP50 enzyme (Homo sapiens, UniProt O14744); assay: In vitro assay 1a: high throughput mass spectrometer assay of SAH formation, 10 nM enzyme, 60 min; type: biochemical; conditions: averaged values, PRMT5-MEP50, 10 nM enzyme, read-out: pIC50 Assay 1a (converted)
T1 construct: One virus expresses full length human PRMT5 with Flag-tag at N-terminus; Flag (N); purchased Charles River (Argenta); host or cells: insect cells (Sf9), baculovirus co-infection
Outline: (§1)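 Flag-PRMT5/His-MEP50 complex from Sf9 cells, with 1 μM SAM and 0.3 μM full-length histone H2A in pH 8.5 Tris buffer, at 30 °C; 10 nM enzyme for 60 min (1a) or 1.25 nM for 120 min (1b). Formic acid-quenched SAH read by RapidFire MS/MS; 11-point IC50 with Hill fit.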

[2] = target: T1, PRMT5-MEP50 enzyme; assay: In vitro assay 1b: high throughput mass spectrometer assay of SAH formation, 1.25 nM enzyme, 120 min; type: biochemical; conditions: averaged values; PRMT5-MEP50, 1.25 nM enzyme, 120 min; read-out: pIC50 Assay 1b (converted)
Outline: as §1

[3] = system: nuclear symmetric Arginine dimethylation in A549 cells; assay: PD assay (assay 2): inhibition of nuclear symmetric Arginine dimethylation (SYM10 immunohistochemistry), 48 h; type: cell-based; conditions: Homo sapiens
Outline: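 Cells seeded at 400/well overnight, then treated 48 h at 37 °C, final DMSO 0.2%. Fixed and stained with SYM10 antibody plus Alexa 488 secondary, Hoechst and CellMask, then imaged on Opera. Normalized to DMSO (high) and 10 μM reference compound (low); averaged pIC50 reported.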

[4] = A549, averaged values, PD assay, A549 cells, symmetric Arginine dimethylation, read-out: pIC50 Assay 2 (converted)
[5] = A549, read-out: pIC50 Assay 2 (converted)

T1 sequence (O14744 whole entry): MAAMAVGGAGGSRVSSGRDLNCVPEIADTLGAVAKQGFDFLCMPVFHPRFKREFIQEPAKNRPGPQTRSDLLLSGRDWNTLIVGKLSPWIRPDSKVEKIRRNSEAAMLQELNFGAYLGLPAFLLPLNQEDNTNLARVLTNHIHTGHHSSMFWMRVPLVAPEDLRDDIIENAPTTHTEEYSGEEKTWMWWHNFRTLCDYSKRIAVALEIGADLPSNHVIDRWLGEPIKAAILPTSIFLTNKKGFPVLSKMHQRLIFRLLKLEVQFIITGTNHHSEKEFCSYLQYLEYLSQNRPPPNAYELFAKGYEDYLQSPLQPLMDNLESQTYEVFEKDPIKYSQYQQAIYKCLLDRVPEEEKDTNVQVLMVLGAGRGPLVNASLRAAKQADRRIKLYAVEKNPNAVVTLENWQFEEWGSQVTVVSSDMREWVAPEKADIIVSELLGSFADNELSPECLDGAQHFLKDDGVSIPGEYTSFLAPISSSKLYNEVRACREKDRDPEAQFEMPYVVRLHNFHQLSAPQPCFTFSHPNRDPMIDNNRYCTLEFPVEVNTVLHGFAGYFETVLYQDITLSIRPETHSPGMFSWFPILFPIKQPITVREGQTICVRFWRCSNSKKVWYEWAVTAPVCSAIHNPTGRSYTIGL
T1 sequence (Q9BQA1 whole entry partner): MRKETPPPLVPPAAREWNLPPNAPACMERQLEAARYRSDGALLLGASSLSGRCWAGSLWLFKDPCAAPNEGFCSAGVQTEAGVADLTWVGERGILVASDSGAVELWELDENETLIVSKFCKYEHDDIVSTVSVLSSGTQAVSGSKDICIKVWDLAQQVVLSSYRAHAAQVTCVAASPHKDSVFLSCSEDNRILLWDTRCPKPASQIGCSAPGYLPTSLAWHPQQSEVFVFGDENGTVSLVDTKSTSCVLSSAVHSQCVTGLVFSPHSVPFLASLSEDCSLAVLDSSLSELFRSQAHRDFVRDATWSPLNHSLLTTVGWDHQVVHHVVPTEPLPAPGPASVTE

Row | IC50 [1] | IC50 [2] | IC50 [3, 4] | Structure (SMILES) | IC50 [3, 5]
1 | 5010 nM | 15800 nM | > 10000 nM | COc1ccnc2cc(OC[C@H]3O[C@@H](n4ccc5c(N)ncnc54)[C@H](O)[C@@H]3O)ccc12 [Compound 104] | 
2 | 158 nM | 1000 nM | 2510 nM | COC(=O)c1cnc2cc(OC[C@H]3O[C@@H](n4ccc5c(N)ncnc54)[C@H](O)[C@@H]3O)ccc2c1 [Compound 105] | 
3 | 63.1 nM | 158 nM | 398 nM | Nc1ncnc2c1ccn2[C@@H]1O[C@H](COc2cc3ncc(Br)cc3cc2F)[C@@H](O)[C@H]1O [Compound 106] | 
4 | 1.26 nM | 3.98 nM | 3.98 nM | Nc1ncnc2c1ccn2[C@@H]1O[C@H](COc2ccc3ccc(NCc4ccccc4)nc3c2)[C@@H](O)[C@H]1O [Compound 107] | 
5 | 39.8 nM | 100 nM | 63.1 nM | Cc1cc2c(N)ncnc2n1[C@@H]1O[C@H](COc2ccc3cc(Br)cnc3c2)[C@@H](O)[C@H]1O [Compound 108] | 
6 | 126 nM | 200 nM | 1000 nM | Nc1ncnc2c1ccn2[C@@H]1O[C@H](COc2ccc3cc(C4CCCC4)cnc3c2)[C@@H](O)[C@H]1O [Compound 109] | 
7 | 2 nM | 1.58 nM | 0.501 nM | Nc1ccc2ccc(CC[C@H]3C[C@@H](n4ccc5c(Cl)ncnc54)[C@H](O)[C@@H]3O)cc2n1 [Compound 110] | 
8 | 12.6 nM | 39.8 nM | 63.1 nM | Nc1ncnc2c1ccn2[C@@H]1O[C@H](CCc2ccc3cc(Br)cnc3c2)[C@@H](O)[C@H]1O [Compound 111] | 
9 | 50.1 nM | 200 nM | 398 nM | CC(C)Cc1cnc2cc(OC[C@H]3O[C@@H](n4ccc5c(N)ncnc54)[C@H](O)[C@@H]3O)ccc2c1 [Compound 112] | 
10 | 5.01 nM | 10 nM | 5.01 nM | Cc1cnc2cc(CC[C@H]3C[C@@H](n4ccc5c(N)ncnc54)[C@H](O)[C@@H]3O)ccc2c1 [Compound 113] | 
11 | 15.8 nM | 25.1 nM | 12.6 nM | O[C@@H]1[C@@H](CCc2ccc3ccc(NCc4ccc(Cl)cc4)nc3c2)C[C@@H](n2ccc3c(Cl)ncnc32)[C@@H]1O [Compound 114] | 
12 | 10 nM | 5.01 nM | ~5.5 nM | O[C@@H]1[C@@H](CCc2ccc3ccc(NCC4CC4)nc3c2)C[C@@H](n2ccc3c(Cl)ncnc32)[C@@H]1O [Compound 115] | 
13 | 79.4 nM | 316 nM | 316 nM | COCc1cnc2cc(OC[C@H]3O[C@@H](n4ccc5c(N)ncnc54)[C@H](O)[C@@H]3O)ccc2c1 [Compound 120] | 
14 | 12.6 nM | 50.1 nM | 79.4 nM | CCc1cnc2cc(CC[C@H]3O[C@@H](n4ccc5c(N)ncnc54)[C@H](O)[C@@H]3O)ccc2c1 [Compound 122] | 
15 | 5.01 nM | 39.8 nM | 31.6 nM | Cc1cnc2cc(CC[C@H]3O[C@@H](n4ccc5c(N)ncnc54)[C@H](O)[C@@H]3O)ccc2c1 [Compound 123] | 
16 | 2 nM | 5.01 nM | 0.631 nM | Nc1ncnc2c1ccn2[C@@H]1C[C@H](CCc2ccc3ccc(NCc4ccc(Cl)cc4)nc3c2)[C@@H](O)[C@H]1O [Compound 124] | 
17 | 3.98 nM | 25.1 nM | 20 nM | CCc1cnc2cc(CC[C@H]3C[C@@H](n4ccc5c(N)ncnc54)[C@H](O)[C@@H]3O)ccc2c1 [Compound 125] | 
18 | 12.6 nM | 100 nM | 126 nM | O[C@@H]1[C@H](O)[C@@H](CCc2ccc3ccc(NCc4ccc(Cl)cc4)nc3c2)O[C@H]1n1ccc2c(Cl)ncnc21 [Compound 127] | 
19 | 7.94 nM | 63.1 nM | 200 nM | CNc1ccc2ccc(CC[C@H]3O[C@@H](n4ccc5c(Cl)ncnc54)[C@H](O)[C@@H]3O)cc2n1 [Compound 128] | 
20 | 0.631 nM | 7.94 nM | 12.6 nM | Nc1ccc2ccc(OC[C@H]3O[C@@H](n4ccc5c(Cl)ncnc54)[C@H](O)[C@@H]3O)cc2n1 [Compound 130] | 
21 | 7.94 nM | 63.1 nM | ~66.1 nM | O[C@@H]1[C@H](O)[C@@H](COc2ccc3ccc(NCc4ccc(Cl)cc4)nc3c2)O[C@H]1n1ccc2c(Cl)ncnc21 [Compound 131] | 

Row | IC50 [1] | IC50 [2] | IC50 [3, 4] | Structure (SMILES) | IC50 [3, 5]
22 | 0.794 nM | 2.51 nM | 2.51 nM | Nc1ncnc2c1ccn2[C@@H]1O[C@H](COc2ccc3ccc(NCc4ccc(Cl)cc4)nc3c2)[C@@H](O)[C@H]1O [Compound 132] | 
23 | 0.631 nM | 6.31 nM | 6.31 nM | Nc1ccc2ccc(CC[C@H]3O[C@@H](n4ccc5c(Cl)ncnc54)[C@H](O)[C@@H]3O)cc2n1 [Compound 133] | 
24 | 1 nM | 6.31 nM | ~2.82 nM | Nc1ncnc2c1ccn2[C@@H]1O[C@H](CCc2ccc3ccc(NCc4ccc(Cl)cc4)nc3c2)[C@@H](O)[C@H]1O [Compound 135] | 
25 | 7.94 nM | 50.1 nM | 501 nM | CNc1ccc2ccc(OC[C@H]3O[C@@H](n4ccc5c(Cl)ncnc54)[C@H](O)[C@@H]3O)cc2n1 [Compound 136] | 
26 | 1.58 nM | 20 nM | 6.31 nM | CNc1ccc2ccc(CC[C@H]3O[C@@H](n4ccc5c(N)ncnc54)[C@H](O)[C@@H]3O)cc2n1 [Compound 137] | 
27 | 7.94 nM | 79.4 nM | 126 nM | O[C@@H]1[C@H](O)[C@@H](CCc2ccc3ccc(NCC4CC4)nc3c2)O[C@H]1n1ccc2c(Cl)ncnc21 [Compound 138] | 
28 | 1.26 nM | 10 nM | 6.31 nM | Nc1ncnc2c1ccn2[C@@H]1O[C@H](CCc2ccc3ccc(NCC4CC4)nc3c2)[C@@H](O)[C@H]1O [Compound 139] | 
29 | 6.31 nM | 50.1 nM | 794 nM | O[C@@H]1[C@H](O)[C@@H](COc2ccc3ccc(NCC4CC4)nc3c2)O[C@H]1n1ccc2c(Cl)ncnc21 [Compound 140] | 
30 | 7.94 nM | 50.1 nM | 63.1 nM | Nc1ncnc2c1ccn2[C@@H]1C[C@H](CCc2ccc3cnc(NCC4CC4)nc3c2)[C@@H](O)[C@H]1O [Compound 141] | 
31 | 1.26 nM | 7.94 nM | 15.8 nM | Nc1ncnc2c1ccn2[C@@H]1O[C@H](COc2ccc3ccc(NCC4CC4)nc3c2)[C@@H](O)[C@H]1O [Compound 142] | 
32 | 10 nM | 50.1 nM | 2510 nM | Nc1cnc2ccc(CC[C@H]3C[C@@H](n4ccc5c(Cl)ncnc54)[C@H](O)[C@@H]3O)cc2n1 [Compound 143] | 
33 | 15.8 nM | 79.4 nM | 79.4 nM | Nc1ncnc2c1ccn2[C@@H]1C[C@H](CCc2ccc3cnc(NC4CC4)nc3c2)[C@@H](O)[C@H]1O [Compound 145] | 
34 | 0.251 nM | 2.51 nM | < 1.17 nM | Nc1ncnc2c1ccn2[C@@H]1C[C@H](CCc2ccc3ccc(NC4CCCC4)nc3c2)[C@@H](O)[C@H]1O [Compound 146] | 
35 | 251 nM | 251 nM | 31.6 nM | Nc1ncnc2c1ccn2[C@@H]1C[C@H](CCc2ccc3cc(Cl)c(NCC4CC4)nc3c2)[C@@H](O)[C@H]1O [Compound 147] | 
36 | 398 nM | 794 nM | 200 nM | Nc1ncnc2c1ccn2[C@@H]1C[C@H](CCc2ccc3cc(Br)c(NCC4CC4)nc3c2)[C@@H](O)[C@H]1O [Compound 148] | 
37 | 1 nM | 15.8 nM | 31.6 nM | CC(C)(C)Nc1ccc2ccc(CC[C@H]3C[C@@H](n4ccc5c(N)ncnc54)[C@H](O)[C@@H]3O)cc2n1 [Compound 150] | 
38 | 0.794 nM | 15.8 nM | 5.01 nM | Nc1ncnc2c1ccn2[C@@H]1C[C@H](CCc2ccc3ccc(NCC(F)(F)F)nc3c2)[C@@H](O)[C@H]1O [Compound 151] | 
39 | 0.501 nM | 3.98 nM | < 1.17 nM | Nc1ncnc2c1ccn2[C@@H]1C[C@H](CCc2ccc3ccc(NC4CC4)nc3c2)[C@@H](O)[C@H]1O [Compound 152] | 
40 | 0.501 nM | 5.01 nM | 6.31 nM | Nc1ccc2ccc(OC[C@H]3O[C@@H](n4ccc5cncnc54)[C@H](O)[C@@H]3O)cc2n1 [Compound 163] | 
41 | 0.398 nM | 10 nM | < 1.17 nM | CNc1ccc2ccc(CC[C@H]3C[C@@H](n4ccc5cncnc54)[C@H](O)[C@@H]3O)cc2n1 [Compound 164] | 
42 | 3.98 nM | 31.6 nM | 20 nM | O[C@@H]1[C@H](O)[C@@H](CCc2ccc3ccc(NCc4ccc(Cl)cc4)nc3c2)O[C@H]1n1ccc2cncnc21 [Compound 165] | 

Row | Structure (SMILES) | IC50 [1] | IC50 [2] | IC50 [3, 4] | IC50 [3, 5]
43 | CNc1ccc2ccc(CC[C@H]3C[C@@H](n4ccc5c(N)ncnc54)[C@H](O)[C@@H]3O)cc2n1 [Compound 126] | 0.501 nM | 2.51 nM |  | 0.316 nM
44 | Nc1ncnc2c1ccn2[C@@H]1C[C@H](CCc2ccc3cc(Br)cnc3c2)[C@@H](O)[C@H]1O [Compound 129] | 2.51 nM | 15.8 nM |  | 12.6 nM
45 | CC(C)Nc1ccc2ccc(CC[C@H]3C[C@@H](n4ccc5c(N)ncnc54)[C@H](O)[C@@H]3O)cc2n1 [Compound 149] | 0.316 nM | 5.01 nM |  | 1 nM
